Data reported in the NIST ThermoML archive (doi:10.1021/acs.jced.5b00691).

Experiments:
[1] = for surface tension liquid-gas: surface light scattering; for kinematic viscosity / mass density: Liquid; for kinematic viscosity: Surface laser light scattering (SLLS); for mass density: Vibrating tube method
[2] = xn = mol fraction of the nth substance listed; conditions: for surface tension liquid-gas: surface light scattering; for kinematic viscosity / mass density: Liquid; for kinematic viscosity: Surface Light Scattering; for mass density: Vibrating tube method

CCOC(F)(C(F)(F)C(F)(F)C(F)(F)F)C(F)(C(F)(F)F)C(F)(F)F (stereo not given) [2-trifluoromethyl-3-ethoxydodecafluorohexane]
[1]
Conditions | kinematic viscosity [m2/s] | mass density [kg/m3] | surface tension liquid-gas [mN/m]
273.15 K | 1.14e-06 | 1670.6 | 16.92
278.15 K | – | 1660.59 | –
283.15 K | 9.38e-07 | 1650.49 | 16.23
288.15 K | – | 1640.35 | –
293.15 K | 8.04e-07 | 1630.17 | 15.52
298.15 K | – | 1619.92 | –
303.15 K | 6.91e-07 | 1609.61 | 14.75
308.15 K | – | 1599.24 | –
313.15 K | 6.11e-07 | 1588.77 | 14.07
318.15 K | – | 1578.28 | –
323.15 K | 5.38e-07 | 1567.69 | 13.3
328.15 K | – | 1557 | –
333.15 K | 4.71e-07 | 1546.2 | 12.65
338.15 K | – | 1535.3 | –
343.15 K | 4.28e-07 | 1524.31 | 11.89
348.15 K | – | 1513.21 | –
353.15 K | 3.88e-07 | 1501.99 | 11.13
358.15 K | – | 1490.64 | –
363.15 K | 3.52e-07 | 1479.16 | 10.4
373.15 K | 3.17e-07 | – | 9.66

COC(F)(C(F)(F)C(F)(F)F)C(F)(C(F)(F)F)C(F)(F)F (stereo not given)
[1]
Conditions | kinematic viscosity [m2/s] | mass density [kg/m3] | surface tension liquid-gas [mN/m]
273.15 K | 1.01e-06 | 1714.26 | 16.56
278.15 K | – | 1702.92 | –
283.15 K | 8.49e-07 | 1691.49 | 15.81
288.15 K | – | 1680.02 | –
293.15 K | 7.37e-07 | 1668.48 | 14.97
298.15 K | – | 1656.86 | –
303.15 K | 6.31e-07 | 1645.14 | 14.15
308.15 K | – | 1633.38 | –
313.15 K | 5.56e-07 | 1621.44 | 13.43
318.15 K | – | 1609.41 | –
323.15 K | 4.92e-07 | 1597.29 | 12.61
328.15 K | – | 1585.05 | –
333.15 K | 4.36e-07 | 1572.65 | 11.79
338.15 K | – | 1560.14 | –
343.15 K | 3.95e-07 | 1547.49 | 11.03
348.15 K | – | 1534.67 | –
353.15 K | 3.52e-07 | 1521.68 | 10.16
358.15 K | – | 1508.51 | –
363.15 K | 3.15e-07 | 1495.16 | 9.43
373.15 K | 2.88e-07 | – | 8.64

COC(F)(F)C(F)(C(F)(F)F)C(F)(F)F [methyl nonafluoroisobutyl ether] + COC(F)(F)C(F)(F)C(F)(F)C(F)(F)F
[2], x1 = 0.623
Conditions | kinematic viscosity [m2/s] | mass density [kg/m3] | surface tension liquid-gas [mN/m]
273.15 K | 6.64e-07 | 1579.23 | 15.82
278.15 K | – | 1566.86 | –
283.15 K | 5.7e-07 | 1554.37 | 14.82
288.15 K | – | 1541.76 | –
293.15 K | 4.84e-07 | 1529.03 | 13.8
298.15 K | – | 1516.15 | –
303.15 K | 4.28e-07 | 1503.18 | 12.89
308.15 K | – | 1490.04 | –
313.15 K | 3.81e-07 | 1476.74 | 11.92
318.15 K | – | 1463.23 | –
323.15 K | 3.38e-07 | 1449.5 | 11
328.15 K | – | 1435.61 | –
333.15 K | 3.06e-07 | 1421.48 | 10.06
338.15 K | – | 1407.13 | –
343.15 K | 2.77e-07 | 1392.52 | 9.13
348.15 K | – | 1377.65 | –
353.15 K | 2.46e-07 | 1362.5 | 8.16
358.15 K | – | 1347.04 | –
363.15 K | 2.28e-07 | 1331.24 | 7.32
373.15 K | 2.09e-07 | – | 6.46

COC(F)(F)C(F)(F)C(F)(F)F [heptafluoropropyl methyl ether]
[1]
Conditions | kinematic viscosity [m2/s] | mass density [kg/m3] | surface tension liquid-gas [mN/m]
273.15 K | 4.22e-07 | 1471.16 | 14.49
278.15 K | – | 1458.15 | –
283.15 K | 3.65e-07 | 1444.94 | 13.31
288.15 K | – | 1431.58 | –
293.15 K | 3.3e-07 | 1418.04 | 12.33
298.15 K | – | 1404.3 | –
303.15 K | 2.9e-07 | 1390.35 | 11.23
308.15 K | – | 1376.15 | –
313.15 K | 2.64e-07 | 1361.67 | 10.27
318.15 K | – | 1346.91 | –
323.15 K | 2.37e-07 | 1331.89 | 9.23
328.15 K | – | 1316.54 | –
333.15 K | 2.2e-07 | 1300.86 | 8.28
338.15 K | – | 1284.82 | –
343.15 K | 2.01e-07 | 1268.38 | 7.36
348.15 K | – | 1251.45 | –
353.15 K | 1.8e-07 | 1234.05 | 6.38
358.15 K | – | 1216.87 | –
363.15 K | 1.66e-07 | 1199.54 | 5.48
373.15 K | 1.53e-07 | – | 4.62

CCOC(F)(F)C(F)(C(F)(F)F)C(F)(F)F [nonafluoroisobutyl ethyl ether] + CCOC(F)(F)C(F)(F)C(F)(F)C(F)(F)F
[2], x1 = 0.613
Conditions | kinematic viscosity [m2/s] | mass density [kg/m3] | surface tension liquid-gas [mN/m]
273.15 K | 6.63e-07 | 1478.05 | 16.03
278.15 K | – | 1467.14 | –
283.15 K | 5.56e-07 | 1456.15 | 14.9
288.15 K | – | 1445.07 | –
293.15 K | 4.82e-07 | 1433.94 | 14.01
298.15 K | – | 1422.65 | –
303.15 K | 4.29e-07 | 1411.31 | 13.21
308.15 K | – | 1399.85 | –
313.15 K | 3.82e-07 | 1388.27 | 12.33
318.15 K | – | 1376.56 | –
323.15 K | 3.43e-07 | 1364.66 | 11.42
328.15 K | – | 1352.68 | –
333.15 K | 3.13e-07 | 1340.45 | 10.56
338.15 K | – | 1328.09 | –
343.15 K | 2.83e-07 | 1315.57 | 9.67
348.15 K | – | 1302.85 | –
353.15 K | 2.56e-07 | 1289.93 | 8.84
358.15 K | – | 1276.74 | –
363.15 K | 2.38e-07 | 1263.25 | 7.99
373.15 K | 2.22e-07 | – | 7.19
